From patent US20210008177A1 (priority 2019, published 2021) come the findings set out here.

One test deals with IL-6. Nature of the test: IL-6 in lumbar spinal cord tissue of mice after tolerance and hyperalgesia tests (ELISA). The following applies: lumbar spinal cord homogenate of mice after 7 days of injections, cobrotoxin of sequence ID NO.1, SD in own column. In general terms: ELISA stands for enzyme-linked immunosorbent assay.
The test system of the next test is SD rats. The conditions noted are these: rat, in vivo.
Another test deals with NOS. Briefly: NOS activity in lumbar spinal cord tissue of mice after tolerance and hyperalgesia tests. The following applies: lumbar spinal cord homogenate of mice after 7 days of injections, cobrotoxin of sequence ID NO.1, SD in own column.
The subject of another test is IL-1β. Nature of the test: IL-1β in lumbar spinal cord tissue of mice after tolerance and hyperalgesia tests (ELISA). The conditions noted are these: lumbar spinal cord homogenate of mice after 7 days of injections, cobrotoxin of sequence ID NO.1, SD in own column.
Test [1] has as its system Kunming mice. The conditions noted are these: mouse, in vivo.
Description: To evaluate the therapeutic effects elapidea neurotoxins, one of the reliable morphine induced hyperalgesia/tolerance model in mice (Elhabazi, K et al) was created, and effects of the representative EXAMPLE compounds were investigated on the model.
100 Kunming mice were subjected to tail pressure tests for 4 days to measure the mechanical pain threshold and the average pain threshold will be set as the baseline pain threshold. • i. Put the mouse gently into the restraint and put its tail under the conical tip of the pain test apparatus. Press the pedal switch, and increase the pressure on the proximal end of the tail evenly until signs of the first pain response (struggle, squeaking) occurs. Record pain-inducing pressure when pain response occurs (units: g) as the value of pain threshold. The pressure was released upon reaching 700 g with no indication of a response to avoid tissue injury. Measurements were also conducted at the middle and distal ends of the tail of the same mouse with a minimum of 30 seconds time intervals between each measurement. • ii. Put the tested mice in a cage and test the next one until every mouse in the group is tested. […] The pain threshold of the mice measured by the tail pressure test ranged from 180 g to 220 g. […]
The subject of test [2] is Kunming mice. The class given is in vivo. The conditions noted are these: for average pain threshold before injection, difference between physiological saline, cobrotoxin and cobrotoxin+morphine groups: day 5 through day 11.
Description: 100 Kunming mice were subjected to tail pressure tests for 4 days to measure the mechanical pain threshold and the average pain threshold will be set as the baseline pain threshold. • i. Put the mouse gently into the restraint and put its tail under the conical tip of the pain test apparatus. Press the pedal switch, and increase the pressure on the proximal end of the tail evenly until signs of the first pain response (struggle, squeaking) occurs. Record pain-inducing pressure when pain response occurs (units: g) as the value of pain threshold. The pressure was released upon reaching 700 g with no indication of a response to avoid tissue injury. Measurements were also conducted at the middle and distal ends of the tail of the same mouse with a minimum of 30 seconds time intervals between each measurement. • ii. Put the tested mice in a cage and test the next one until every mouse in the group is tested. The average of the three measurements (i.e., the proximal, mid and distal ends of each mouse tail) was used as the pain threshold (g) of each mouse when all mice were subjected to a tail pressure test. • iii. In the following 3 days, all mice underwent repeated measurements of tail pressure pain threshold. • iv. […] The mice were then randomly divided into four groups: namely ‘physiological saline group’, ‘morphine group’, ‘cobrotoxin group’ and ‘cobrotoxin+morphine group’. Each group comprised of 20 mice, which is used for the hyperalgesia and tolerance test of the corresponding drugs in the group's name. Any surplus mice were excluded. • v. Lastly, each group of 20 mice was divided randomly again into two groups, with each group comprising 10 mice, as cobrotoxin of amino acid sequence ID NO.1, and cobrotoxin of amino acid sequence ID NO. 2 will be used for parallel testing
After 4 days of measurement of the mice's baseline pain threshold described in step 1, from the fifth day to the eleventh day, the measurement of pain threshold was performed before the injection. […]
Another test concerns NO. Nature of the test: NO content in lumbar spinal cord tissue of mice after tolerance and hyperalgesia tests. The following applies: lumbar spinal cord homogenate of mice after 7 days of injections, cobrotoxin of sequence ID NO.1, SD in own column.

“Also recorded” adds a separate entry of the source. Like-named read-outs stand apart in the source and are kept apart here.

Protocol for SD rats: Writhing test was applied to the rats, which is a chemical method used to induce pain of the peripheral origin by injection of irritant principles like acetic acid in rats. Analgesic effect of the test compound is inferred from the decrease in the frequency of writhe.
The aforementioned four groups of rats were injected with sterile saline (NaCl 0.9% 1 ml), morphine (3 mg/kg), cobrotoxin (50 ug/kg), and cobrotoxin (25 ug/kg)+morphine (1.5 mg/kg) respectively.
Following Step1, the aforementioned four groups SD rats were injected with 1.5% acetic acid solution (1 ml/rat) again 150 and 210 minutes after the initial injection of 4 different drugs respectively.

For the molecule `CN1CC[C@]23c4c5ccc(O)c4O[C@H]2[C@@H](O)C=C[C@H]3[C@H]1C5` [morphine], the IL-6 entry is “significantly higher” with IL-6 and 19.40 pg/mg protein in the test with IL-6 (listed as Morphine). Further, the “analgesic effect in writhing test” value in the test with SD rats is on record as “lower analgesic effect; also recorded: almost no signs of any analgesic effect”. Also, in the test on SD rats, the “number of writhing, difference within the group between 60, 150 and 210 minutes” value is listed as “significant statistical difference”. Moreover, the NOS result in the test on NOS was “significantly higher”; in the test with NOS (listed as Morphine), 7.56 U/mg protein. The results for the IL-1β result in the test with IL-1β and in the test on IL-1β (listed as Morphine) were “significantly higher” and 16.80 pg/mg protein, respectively. The “average pain threshold one hour after injection, difference within the group between day five, eight and eleven” value in the test with Kunming mice [1] is recorded as “significant statistical difference”. For the same molecule, in the test on Kunming mice [1], the “mean pain threshold one hour after injection, course within the group (tolerance)” value was “significantly decreased from day 5 to day 11”. Besides, the “mean pain threshold before injection (hyperalgesia)” value in the test on Kunming mice [2] (mouse, in vivo) is reported as “significantly lower”. Further, the NO result with NO was “significantly higher”; in the test with NO (listed as Morphine) it was 1.61 μmol/g protein.

B1: Cobrotoxin of amino acid sequence ID No.1 (protein)
chain: LECHNQQSSQTPTTTGCSGGETNCYKKRWRDHRGYRTERGCGCPSVKNGIEINCCTTDRCNN
modifications: Naja atra or Naja kaouthia
Consider B1, for which, in the test with Kunming mice [2] (FIG. 3, cobrotoxin of sequence ID No.1), the “average pain threshold before injection, difference between physiological saline, cobrotoxin and cobrotoxin+morphine groups” value was “No significant statistical differences”.

B2: Cobrotoxin of amino acid sequence ID No.2: mktllltllv vtivcldlgy tlechnqqss qtptttgcsg getncykkrw rdhrgyrter gcgcpsvkng ieinccttdr cnn (protein)
chain: MKTLLLTLLVVTIVCLDLGYTLECHNQQSSQTPTTTGCSGGETNCYKKRWRDHRGYRTERGCGCPSVKNGIEINCCTTDRCNN
modifications: Naja atra or Naja kaouthia
notes: mktllltllv vtivcldlgy tlechnqqss qtptttgcsg getncykkrw rdhrgyrter gcgcpsvkng ieinccttdr cnn
On to B2, for which, in the test with Kunming mice [2] (FIG. 4, cobrotoxin of sequence ID No.2), the “average pain threshold before injection, difference between physiological saline, cobrotoxin and cobrotoxin+morphine groups” value is “No significant statistical differences”.
